Values of other authors in US10561603B2, “Core-shell structure and topical agent” (SEKISUI CHEMICAL CO., LTD., priority 2015, dated 2020).
Structures can show the parent of a compound that is named as a salt.

Conditions: given with manufacturer and molecular weight of the drug raw material

Structure (SMILES) | water-octanol partition coefficient
C[C@@H](O)[C@@H]1NC(=O)[C@H](CCCCN)NC(=O)[C@@H](Cc2c[nH]c3ccccc23)NC(=O)[C@H](Cc2ccccc2)NC(=O)[C@@H](NC(=O)[C@H](N)Cc2ccccc2)CSSC[C@@H](C(=O)N[C@H](CO)[C@@H](C)O)NC1=O [octreotide acetate] | 0.1
CCCc1nc(C)c2c(=O)[nH]c(-c3cc(S(=O)(=O)N4CCN(CC)CC4)ccc3OCC)nn12 [vardenafil hydrochloride trihydrate] | 3.2
